From patent EP1614683B1, “Indazole compounds and pharmaceutical compositions for inhibiting protein kinases, and methods for their use” (priority 1999, dated 2001)
pIC50: −log10 of the molar value. Read-outs that look alike come from different tables or passages of the source.

Legend:
human FGF-R1 = human FGF-R1 (Homo sapiens, UniProt P11362, C488A/C584S/L457V); assay: FGF-R spectrophotometric assay; type: biochemical; details: read-out: FGF-P* (% inhibition)
Description: The spectrophotometric assay was carried out as described above for VEGF-R2, except for the following changes in concentration: FGF-R = 50 nM, ATP = 2 mM, and poly(E4Y1) =15 mM.

LCK tyrosine kinase = LCK tyrosine kinase (Homo sapiens, UniProt P06239, C224D/P223M); assay: LCK spectrophotometric assay; type: biochemical; details: Table 1; compound concentration 1 µM; read-out: Lck-P* (% inhibition)
Sequence of LCK tyrosine kinase (P06239 223-509 P223M/C224D): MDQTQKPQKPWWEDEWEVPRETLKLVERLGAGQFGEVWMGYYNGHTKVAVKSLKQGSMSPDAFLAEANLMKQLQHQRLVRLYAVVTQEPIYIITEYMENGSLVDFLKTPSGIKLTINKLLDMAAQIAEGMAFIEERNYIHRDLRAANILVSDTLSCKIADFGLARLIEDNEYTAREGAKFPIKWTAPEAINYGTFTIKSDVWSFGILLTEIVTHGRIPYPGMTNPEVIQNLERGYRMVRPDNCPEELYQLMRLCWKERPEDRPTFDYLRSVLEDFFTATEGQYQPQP
Description: The spectrophotometric assay was carried out as described above for VEGF-R2, except for the following changes in concentration: LCK = 60 nM, MgCl2 = 0 mM, poly(E4Y1) = 20 mM.

[1] = tested on: human umbilical vein endothelial cells (HUVEC); assay: HUVEC proliferation assay (VEGF-stimulated, MTT); type: cell-based; details: Homo sapiens, HUVEC, Table 1; + albumin; read-out: HUVEC + albumin IC50
Description: This assay determines the ability of a test compound to inhibit the growth factor-stimulated proliferation of human umbilical vein endothelial cells ("HUVEC"). HUVEC cells (passage 3-4, Clonetics, Corp.) were thawed into EGM2 culture medium (Clonetics Corp) in T75 flasks. Fresh EGM2 medium was added to the flasks 24 hours later. Four or five days later, cells were exposed to another culture medium (F12K medium supplemented with 10% fetal bovine serum (FBS), 60 µg/mL endothelial cell growth supplement (ECGS), and 0.1 mg/mL heparin). Exponentially-growing HUVEC cells were used in experiments thereafter. Ten to twelve thousand HUVEC cells were plated in 96-well dishes in 100 µl of rich, culture medium (described above). The cells were allowed to attach for 24 hours in this medium. The medium was then removed by aspiration and 105 µl of starvation media (F12K+1% FBS) was added to each well. After 24 hours, 15 µl of test agent dissolved in 1% DMSO in starvation medium or this vehicle alone was added into each treatment well; the final DMSO concentration was 0.1%. One hour later, 30 µl of VEGF (30 ng/mL) in starvation media was added to all wells except those containing untreated controls; the final VEGF concentration was 6 ng/mL. Cellular proliferation was quantified 72 hours later by MTT dye reduction, at which time cells were exposed for 4 hours MTT (Promega Corp.).

[2] = target: unphosphorylated VEGF-R2Δ50 (Homo sapiens, UniProt P35968, DEL940-989/E990V); assay: biochemical; details: for inhibition at 0.05 µM: read-out: FLVK ** (% inhibition)
Sequence of unphosphorylated VEGF-R2Δ50 (P35968 with tags, fused parts or gaps DEL940-989/E990V limits assumed): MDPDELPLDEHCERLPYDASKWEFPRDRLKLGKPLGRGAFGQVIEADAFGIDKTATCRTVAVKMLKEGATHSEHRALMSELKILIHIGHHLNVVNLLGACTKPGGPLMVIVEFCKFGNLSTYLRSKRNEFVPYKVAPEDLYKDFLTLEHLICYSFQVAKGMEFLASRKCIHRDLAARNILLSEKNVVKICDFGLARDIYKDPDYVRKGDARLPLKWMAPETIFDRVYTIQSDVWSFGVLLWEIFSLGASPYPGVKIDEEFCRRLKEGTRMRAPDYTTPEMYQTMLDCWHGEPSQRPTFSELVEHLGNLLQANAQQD

[3] = Table 1, compound concentration 1 µM

Sequence of human FGF-R1 (P11362 456-766 L457V/C488A/C584S): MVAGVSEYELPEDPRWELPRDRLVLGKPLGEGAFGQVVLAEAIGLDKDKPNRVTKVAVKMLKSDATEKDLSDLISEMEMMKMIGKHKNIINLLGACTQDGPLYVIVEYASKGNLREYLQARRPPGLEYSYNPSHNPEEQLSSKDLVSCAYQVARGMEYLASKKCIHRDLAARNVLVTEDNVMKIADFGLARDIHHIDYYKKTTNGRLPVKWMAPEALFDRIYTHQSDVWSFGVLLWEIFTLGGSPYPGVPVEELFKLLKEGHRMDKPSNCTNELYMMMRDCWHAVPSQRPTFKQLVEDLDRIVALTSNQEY

SMILES | inhibition at 1 µM (human FGF-R1; [3]) [%] | inhibition at 1 µM (LCK tyrosine kinase) [%] | pIC50 [1] | inhibition at 0.05 µM [2] [%] | inhibition at 1 µM ([2]; read-out: FLVK* (% inhibition)) [%] | inhibition at 1 µM (human FGF-R1) [%]
O=C(N[C@@H]1C[C@H]1c1ccccc1)c1ccccc1Sc1ccc2c(/C=C/c3ccccn3)n[nH]c2c1 (racemic) [Reference Example 34] | 95 | 78 | 7.82 | 97 |  | 
Cc1cc(C(=O)Nc2cc(Nc3ccc4c(/C=C/c5ccccn5)n[nH]c4c3)c(F)cc2C)n(C)n1 [Example 48(b), 6-[N-(5-((1,3-Dimethyl-1H-pyrazol-5-yl)carboxamido)-2-fluoro-4-methylphenyl)amino]-3-E-[2-(pyridin-2-yl)ethenyl]-1H-indazole] | 77 | 6 |  | 97 |  | 
C(=C\c1n[nH]c2cc(-c3ccncc3)ccc12)/c1nc2ccccc2[nH]1 [Reference Example 29(q), 6-pyrid-4-yl-3-E-[2-(benzimidazol-2-yl)ethenyl]-1H-indazole] |  |  |  |  | 11 | 
CC(C)NC(=O)c1ccccc1Sc1ccc2c(/C=C/c3ccccn3)n[nH]c2c1 [Reference Example 35(b), 6-[2-(i-Propylcarbamoyl)phenylsulfanyl]-3-E-[2-(pyridin-2-yl)ethenyl]-1H-indazole] | 59 | 12 | 7.46 | 49 |  | 
NC(=O)c1ccccc1Sc1ccc2c(/C=C/c3ccccn3)n[nH]c2c1 [Reference Example 35(d), 6-(2-Carbamoylphenylsulfanyl)-3-E-[2-(pyridin-2-yl)ethenyl]-1H-indazole] |  |  |  | 76 |  | 
CNCCNC(=O)c1ccccc1Sc1ccc2c(/C=C/c3ccccn3)n[nH]c2c1 [Reference Example 35(gg), 6-[2-(2-(methylamino)ethylcarbamoyl)phenylsulfanyl]-3-E-[2-(pyridin-2-yl)ethenyl]-1H-indazole] |  |  |  | 23 |  | 
O=C(NCCc1cccs1)c1ccccc1Sc1ccc2c(/C=C/c3ccccn3)n[nH]c2c1 [Reference Example 35(hh), 6-[2-(2-(Thien-2-yl)ethylcarbamoyl)phenylsulfanyl]-3-E-[2-(pyridin-2-yl)ethenyl]-1H-indazole] | 73 | 34 | 8.15 | 100 |  | 
CN(O)C(=O)c1ccccc1Sc1ccc2c(/C=C/c3ccccn3)n[nH]c2c1 [Reference Example 35(o), 6-[2-(N-Hydroxy-N-methylcarbamoyl)phenylsufanyl]-3-E-[2-(pyridin-2-yl)ethenyl]-1H-indazole] | 44 | 17 |  | 39 |  | 
O=C(NCc1ccncc1)c1ccccc1Sc1ccc2c(/C=C/c3ccccn3)n[nH]c2c1 [Reference Example 35(p), 6-[2-((Pyrid-4-yl)methylcarbamoyl)phenylsulfanyl]-3-E-[2-(pyridin-2-yl)ethenyl]-1H-indazole] | 11 | 5 |  | 62 |  | 
Cc1ccccc1C(=O)NNC(=O)c1ccccc1Sc1ccc2c(/C=C/c3ccccn3)n[nH]c2c1 [Reference Example 35(q), 6-[2-((2-Methylphenylhydrazido)carbonyl)phenylsulfanyl]-3-E-[2-(pyridin-2-yl)ethenyl]-1H-indazole] | 51 | 42 | 7.74 | 92 |  | 
N#CCNC(=O)c1ccccc1Sc1ccc2c(/C=C/c3ccccn3)n[nH]c2c1 [Reference Example 35(w), 6-[2-(Cyanomethylcarbamoyl)phenylsulfanyl]-3-E-[2-(pyridin-2-yl)ethenyl]-1H-indazole] |  |  | 7.46 | 59 |  | 
Cn1ccnc1/C=N/NC(=O)c1ccccc1Sc1ccc2c(/C=C/c3ccccn3)n[nH]c2c1 [Reference Example 36(a)] | 38 | 19 | 7.72 | 87 |  | 
O=C(N/N=C/c1ccccn1)c1ccccc1Sc1ccc2c(/C=C/c3ccccn3)n[nH]c2c1 [Reference Example 36(b)] | 43 | 22 |  | 85 |  | 
O=C(N/N=C/C(F)(F)F)c1ccccc1Sc1ccc2c(/C=C/c3ccccn3)n[nH]c2c1 [Reference Example 36(c)] | 60 | 28 |  | 89 |  | 
O=C(NC1CC1)c1cccc(F)c1Sc1ccc2c(/C=C/c3ccccn3)n[nH]c2c1 [Reference Example 37(b), 6-[6-Fluoro-2-(cyclopropylcarbamoyl)phenylsulfanyl]-3-E-[2-(pyridin-2-yl)ethenyl]-1H-indazole] | 36 | 8 | 7.00 to 7.52 | 48 |  | 
CNC(=O)c1cccc(F)c1Sc1ccc2c(/C=C/c3ccccn3)n[nH]c2c1 [Reference Example 37(d), 6-[6-Fluoro-2-(methylcarbamoyl)phenylsulfanyl]-3-E-[2-(pyridin-2-yl)ethenyl]-1H-indazole] | 38 | 10 |  | 26 |  | 
Cc1ccc(C(=O)c2ccc3c(/C=C/c4ccccn4)n[nH]c3c2)cc1N [Reference Example 40(b), 6-(3-Amino-4-methyl-benzoyl)-3-E-[2-(pyridin-2-yl)ethenyl]-1H-indazole] | 92 | 32 |  | 89 |  | 
Cc1cc(C)c(C(=O)c2ccc3c(/C=C/c4ccccn4)n[nH]c3c2)cc1N [Reference Example 40(c), 6-(5-Amino-2,4-dimethyl-benzoyl)-3-E-[2-(pyridin-2-yl)ethenyl]-1H-indazole] | 59 | 28 |  | 24 |  | 
O=C(Nc1cccc(C(=O)c2ccc3c(/C=C/c4ccccn4)n[nH]c3c2)c1)Oc1ccccc1 [Reference Example 41(cc), 6-[3-(phenoxyamido)benzoyl]-3-E-[2-(pyridin-2-yl)ethenyl]-1H-indazole] |  | 41 |  | 97 |  | 95
CC(=O)Nc1cc(C(=O)c2ccc3c(/C=C/c4ccccn4)n[nH]c3c2)ccc1C [Reference Example 41(gg), 6-(3-acetamido-4-methylbenzoyl)-3-E-[2-(pyridin-2-yl)ethenyl]-1H-indazole] |  | 27 | 8.02 | 84 |  | 
CC(=O)Nc1cc(C(=O)c2ccc3c(/C=C/c4ccccn4)n[nH]c3c2)c(C)cc1C [Reference Example 41(nn), 6-(5-acetamido-2,4-dimethylbenzoyl)-3-E-[2-(pyridin-2-yl)ethenyl]-1H-indazole] | 91 | 7 |  | 57 |  | 
Cc1cc(C(=O)Nc2cccc(C(=O)c3ccc4c(/C=C/c5ccccn5)n[nH]c4c3)c2)cc(Cl)n1 [Reference Example 41(q), 6-[3-((2-chloro-6-methylpyridin-4-yl)carboxamido)benzoyl]-3-E-[2-(pyridin-2-yl)ethenyl]-1H-indazole] | 91 | 53 |  | 100 |  | 
Cc1cc(C(=O)Nc2cccc(C(=O)c3ccc4c(/C=C/c5ccccn5)n[nH]c4c3)c2)n(C(C)C)n1 [Reference Example 41(x), 6-[3-((1-Isopropyl-3-methyl-1H-pyrazol-5-yl)carboxamido)benzoyl]-3-E-[2-(pyridin-2-yl)ethenyl]-1H-indazole] |  | 66 | 8.34 | 98 |  | 
